Patent publication US5556744A, “Methods and compositions for diagnosing and treating certain HIV infected patients” (The Trustees of the University of Pennsylvania, priority 1994, dated 1996)

Tests used:
[1] = test system: maternal HIV+ sera (antibodies); assay: RIA / ELISA binding of maternal HIV+ sera to gp120 and gp41 peptides (Example 3); design: species or system human
Summary of the method: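 Maternal sera, diluted 1:50 and 1:500, were bound overnight at 4°C to peptides immobilized at 10 μg/ml (pH 9.6 carbonate) and blocked with 1% BSA. Read-out was ¹²⁵I-labelled anti-human IgG counts or HRP-TMB OD450. Signal with peptide minus without was expressed relative to seronegative serum.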

[2] = test system: maternal sera (antibodies); assay: ELISA peptide-binding of maternal sera (Example 6); design: species or system human; conditions: for Number of Non-Transmitters which bound to peptide / Percent of Non-Transmitters which bound to peptide: N = 12; for Number of Transmitters which bound to peptide / Percent of Transmitters which bound to peptide: N = 4
Summary of the method: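 HIV-1 envelope peptides averaging 16 amino acids, covering external and transmembrane glycoprotein, were probed by ELISA. Third-trimester maternal sera, classed as transmitter or non-transmitter by child diagnosis, were each run on at least 40 peptides. Values give percent of sera binding a peptide.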

[3] = Serum No. 1, Non-Transmission Group
[4] = Serum No. 2, Non-Transmission Group
[5] = Serum No. 3, Non-Transmission Group
[6] = Serum No. 4, Transmission Group
[7] = Serum No. 5, Transmission Group
[8] = Serum No. 6, Non-Transmission Group
[9] = Serum No. 7, Non-Transmission Group
[10] = Serum No. 8, Non-Transmission Group
[11] = Serum No. 9, Non-Transmission Group
[12] = Serum No. 10, Transmission Group
[13] = Serum No. 11, Non-Transmission Group
[14] = Serum No. 12, Non-Transmission Group
[15] = Serum No. 13, Transmission Group
[16] = Serum No. 14, Transmission Group
[17] = Serum No. 15, Transmission Group
[18] = Serum No. 16, Non-Transmission Group
[19] = Serum No. 17, Non-Transmission Group
[20] = Serum No. 18, Non-Transmission Group
[21] = Serum No. 19, Transmission Group
[22] = Serum No. 20, Non-Transmission Group

Sequence	Binding of maternal HIV+ serum to peptide (sera/NHS ratio) [1, 3]	Binding of maternal HIV+ serum to peptide (sera/NHS ratio) [1, 4]	Binding of maternal HIV+ serum to peptide (sera/NHS ratio) [1, 5]	Binding of maternal HIV+ serum to peptide (sera/NHS ratio) [1, 6]	Binding of maternal HIV+ serum to peptide (sera/NHS ratio) [1, 7]	Binding of maternal HIV+ serum to peptide (sera/NHS ratio) [1, 8]	Binding of maternal HIV+ serum to peptide (sera/NHS ratio) [1, 9]	Binding of maternal HIV+ serum to peptide (sera/NHS ratio) [1, 10]	Binding of maternal HIV+ serum to peptide (sera/NHS ratio) [1, 11]	Binding of maternal HIV+ serum to peptide (sera/NHS ratio) [1, 12]	Binding of maternal HIV+ serum to peptide (sera/NHS ratio) [1, 13]	Binding of maternal HIV+ serum to peptide (sera/NHS ratio) [1, 14]	Binding of maternal HIV+ serum to peptide (sera/NHS ratio) [1, 15]	Binding of maternal HIV+ serum to peptide (sera/NHS ratio) [1, 16]	Binding of maternal HIV+ serum to peptide (sera/NHS ratio) [1, 17]	Binding of maternal HIV+ serum to peptide (sera/NHS ratio) [1, 18]	Binding of maternal HIV+ serum to peptide (sera/NHS ratio) [1, 19]	Binding of maternal HIV+ serum to peptide (sera/NHS ratio) [1, 20]	Binding of maternal HIV+ serum to peptide (sera/NHS ratio) [1, 21]	Binding of maternal HIV+ serum to peptide (sera/NHS ratio) [1, 22]	also measured
EGGERDRDRSIRLVN [Peptide 129]	+ (which value is between 2 to 3)	- (specific OD450 or cpm of sera sample binding to peptide divided by the specific OD450 or cpm of NHS sample binding to peptide, which value is less than 2)	- (specific OD450 or cpm of sera sample binding to peptide divided by the specific OD450 or cpm of NHS sample binding to peptide, which value is less than 2)	- (specific OD450 or cpm of sera sample binding to peptide divided by the specific OD450 or cpm of NHS sample binding to peptide, which value is less than 2)	- (specific OD450 or cpm of sera sample binding to peptide divided by the specific OD450 or cpm of NHS sample binding to peptide, which value is less than 2)	- (specific OD450 or cpm of sera sample binding to peptide divided by the specific OD450 or cpm of NHS sample binding to peptide, which value is less than 2)	- (specific OD450 or cpm of sera sample binding to peptide divided by the specific OD450 or cpm of NHS sample binding to peptide, which value is less than 2)	- (specific OD450 or cpm of sera sample binding to peptide divided by the specific OD450 or cpm of NHS sample binding to peptide, which value is less than 2)	- (specific OD450 or cpm of sera sample binding to peptide divided by the specific OD450 or cpm of NHS sample binding to peptide, which value is less than 2)	- (specific OD450 or cpm of sera sample binding to peptide divided by the specific OD450 or cpm of NHS sample binding to peptide, which value is less than 2)	- (specific OD450 or cpm of sera sample binding to peptide divided by the specific OD450 or cpm of NHS sample binding to peptide, which value is less than 2)	- (specific OD450 or cpm of sera sample binding to peptide divided by the specific OD450 or cpm of NHS sample binding to peptide, which value is less than 2)	- (specific OD450 or cpm of sera sample binding to peptide divided by the specific OD450 or cpm of NHS sample binding to peptide, which value is less than 2)	- (specific OD450 or cpm of sera sample binding to peptide divided by the specific OD450 or cpm of NHS sample binding to peptide, which value is less than 2)	- (specific OD450 or cpm of sera sample binding to peptide divided by the specific OD450 or cpm of NHS sample binding to peptide, which value is less than 2)	- (specific OD450 or cpm of sera sample binding to peptide divided by the specific OD450 or cpm of NHS sample binding to peptide, which value is less than 2)	- (specific OD450 or cpm of sera sample binding to peptide divided by the specific OD450 or cpm of NHS sample binding to peptide, which value is less than 2)	- (specific OD450 or cpm of sera sample binding to peptide divided by the specific OD450 or cpm of NHS sample binding to peptide, which value is less than 2)	- (specific OD450 or cpm of sera sample binding to peptide divided by the specific OD450 or cpm of NHS sample binding to peptide, which value is less than 2)	- (specific OD450 or cpm of sera sample binding to peptide divided by the specific OD450 or cpm of NHS sample binding to peptide, which value is less than 2)	Number of Non-Transmitters which bound to peptide [2]: 0; Percent of Non-Transmitters which bound to peptide [2]: 0%; Number of Transmitters which bound to peptide [2]: 0; Percent of Transmitters which bound to peptide [2]: 0%
DREINNYTSLIHSLI [Peptide 40]	- (specific OD450 or cpm of sera sample binding to peptide divided by the specific OD450 or cpm of NHS sample binding to peptide, which value is less than 2)	- (specific OD450 or cpm of sera sample binding to peptide divided by the specific OD450 or cpm of NHS sample binding to peptide, which value is less than 2)	- (specific OD450 or cpm of sera sample binding to peptide divided by the specific OD450 or cpm of NHS sample binding to peptide, which value is less than 2)	- (specific OD450 or cpm of sera sample binding to peptide divided by the specific OD450 or cpm of NHS sample binding to peptide, which value is less than 2)	- (specific OD450 or cpm of sera sample binding to peptide divided by the specific OD450 or cpm of NHS sample binding to peptide, which value is less than 2)	- (specific OD450 or cpm of sera sample binding to peptide divided by the specific OD450 or cpm of NHS sample binding to peptide, which value is less than 2)	- (specific OD450 or cpm of sera sample binding to peptide divided by the specific OD450 or cpm of NHS sample binding to peptide, which value is less than 2)	- (specific OD450 or cpm of sera sample binding to peptide divided by the specific OD450 or cpm of NHS sample binding to peptide, which value is less than 2)	- (specific OD450 or cpm of sera sample binding to peptide divided by the specific OD450 or cpm of NHS sample binding to peptide, which value is less than 2)	- (specific OD450 or cpm of sera sample binding to peptide divided by the specific OD450 or cpm of NHS sample binding to peptide, which value is less than 2)	- (specific OD450 or cpm of sera sample binding to peptide divided by the specific OD450 or cpm of NHS sample binding to peptide, which value is less than 2)	- (specific OD450 or cpm of sera sample binding to peptide divided by the specific OD450 or cpm of NHS sample binding to peptide, which value is less than 2)	- (specific OD450 or cpm of sera sample binding to peptide divided by the specific OD450 or cpm of NHS sample binding to peptide, which value is less than 2)	- (specific OD450 or cpm of sera sample binding to peptide divided by the specific OD450 or cpm of NHS sample binding to peptide, which value is less than 2)	- (specific OD450 or cpm of sera sample binding to peptide divided by the specific OD450 or cpm of NHS sample binding to peptide, which value is less than 2)	- (specific OD450 or cpm of sera sample binding to peptide divided by the specific OD450 or cpm of NHS sample binding to peptide, which value is less than 2)	- (specific OD450 or cpm of sera sample binding to peptide divided by the specific OD450 or cpm of NHS sample binding to peptide, which value is less than 2)	- (specific OD450 or cpm of sera sample binding to peptide divided by the specific OD450 or cpm of NHS sample binding to peptide, which value is less than 2)	- (specific OD450 or cpm of sera sample binding to peptide divided by the specific OD450 or cpm of NHS sample binding to peptide, which value is less than 2)	- (specific OD450 or cpm of sera sample binding to peptide divided by the specific OD450 or cpm of NHS sample binding to peptide, which value is less than 2)	Number of Non-Transmitters which bound to peptide [2]: 1; Percent of Non-Transmitters which bound to peptide [2]: 8.3%; Number of Transmitters which bound to peptide [2]: 0; Percent of Transmitters which bound to peptide [2]: 0%
